Data taken from patent US7303752B2, “Hookworm vaccine” (The George Washington University, priority 2001, dated 2007).
“And” between values parts separate entries of the source, which are not always exact repeats. Identical values can stand only once.

How the values were obtained:
Assay type in all cases: in vivo, dog
[1] = system: A. caninum; experiment: Canine vaccine trial with Ac-TMP, Ac-AP, Ac-APR-1, oral challenge with 400 A. caninum L3
Description: Study dogs and animal husbandry: Following protocol approval by The George Washington University Institutional Animal Care and Use Committee (IACUC), purpose bred, parasite naïve, male beagles 8±1 week of age were purchased, identified by ear tattoo, and maintained in the AALAC (Association for Assessment and Accreditation of Laboratory Animal Care) accredited George Washington University Animal Research Facility. The dogs were housed in a room dedicated for the study, at a room temperature of 70±4° F., with 10-15 air changes per hour comprised of 100 percent fresh air, and 12 hr light cycles alternating with 12 hr dark cycles. The airflow and timer functions were monitored daily. The dogs were fed on a diet of Teklad Certified Dog Chow #8727, supplemented with a canned soft diet in the event of anorexia. The drinking water was piped from a filter plant and delivered via automatc water system; water analysis was performed by the U.S. Army Corps of Engineers. Water from the facilities automatic system is cultured for bacteria and fungi annually. The pens were flushed daily and sanitized every two weeks. Dogs within a given study group were permitted to live together and socialize prior to the hookworm larval challenge, but were caged individually post-infection. All dogs were quarantined for approximately one week before beginning the vaccine trial. Prior to vaccination a complete blood count (CBC), serum chemistries, and a pre-vaccination serum sample were obtained.
Vaccine study design and sample size: The vaccine trial was designed to test three different antigens, each formulated with alum, as well as an alum adjuvant control. A total of 24 dogs were randomly assigned into four groups comprised of 6 dogs each. The canine sample size was selected on the ability to detect a 40-50 percent reduction in the numbers of adult hookworms in the small intestines of the vaccinated group relative to control dogs, at a statistical power of 80 percent (alpha=0.05, two-tailed). The data were derived from the mean and standard deviation of adult hookworms previously recovered from age-matched dogs infected with 400 A. caninum L3 (Hotez et al, 2002).
Recombinant Antigens: Each group of 6 dogs was vaccinated with recombinant hookworm proteins expressed as fusion proteins either in Escherichia coli or in an insect cell line with baculovirus. Ac-AP (Cappello et al, 1995; 1996) and Ac-TMP, were expressed in E. coli as pET 28 (Novagen) fusion proteins containing a polyhistidine tag (Cappello et al, 1996). Ac-APR-1 (Harrop et al, 1996) was expressed in a baculovirus pBacPAK6 vector (Clontech), modified to contain a polyhistidine-encoding sequence and additional restriction enzyme sites (Brindley et al, 2001). Recombinant Ac-AP and Ac-TMP fusion proteins were then purified by nickel affinity chromatography, followed by a second step of purification. In the case of Ac-AP (Cappello et al, 1995; 1996), the recombinant protein was purified by mono-S (Amersham-Pharmacia) ion exchange chromatography, while Ac-TMP (Zhan et al, 2002) was purified by superdex 75 (Amersham-Pharmacia) gel filtration chromatography. Ac-APR-1 (Harrop et al, 1996) was purified by substrate affinity chromatography using pepstatin agarose (Brindley et al, 2001). The antigen stock protein concentration was determined by Pierce Micro BCA assay (Pierce Chemicals) or by the absorbance of the sample at […] using an extinction coefficient that was calculated from the deduced amino acid composition of the fusion protein. The amount of alum adsorbed protein in each dose of antigen was measured by the Pierce Micro BCA assay using a bovine serum albumin standard. The relative purity of each of the antigens relative to contaminating E. coli or insect cell proteins was determined by analysis on sodium dodecyl sulfate polyacrylamide gel electrophoresis (SDS-PAGE). […]

[2] = system: antibody to recombinant proteins; experiment: Pre-challenge antibody titer ELISA, trial with Ac-ASP-2, Ac-API, Ac-MEP-1, Ac-APR-1 in AS03
Description: (§1) The vaccine trial was designed to test Ac-API, Ac-ASP-2, Ac-MEP-1, Ac-APR-1 formulated with Adjuvant System 03 (AS03) obtained from GlaxoSmithKline (GSK). The rationale for selecting AS03 as an adjuvants is discussed elsewhere (Stoute et al, 1997). The ten purpose bred beagles were randomized into five arms: immunized with the adjuvant-formulated recombinant proteins or adjuvant only (control). To make six doses of antigen formulated with AS03, […] of recombinant protein (0.3 ml of antigen at a concentration of 2 mg.ml^−1) was mixed with 1.2 ml of 20 mM Tris-HCl, 0.5 M NaCl, pH 7.9 and 1.5 ml of AS03; the contents of the tube were vortex mixed for 30 seconds then shaken at low speed for 10 minutes. Dogs were immunized with 100 g of formulated antigen in a final volume of 0.5 ml. ASO3 only control was prepared as described above, with PBS included instead of antigen. Formulation of GSK adjuvants were conducted according to the protocol provided by GSK. All injections were performed intramuscularly (IM). Test and control articles were prepared on the day of injection. All animals received 4 immunizations approximately 3 weeks apart.
Beagles were immunized with formulated Ac-ASP-2 as previously described (Loukas et al, 2004). The vaccines were administered IM three times beginning at age 62+/−4 days. Boosts were administered to the dogs at intervals of 21 days. Blood was drawn at least once every 21 days and serum was separated from cells by centrifugation. Each animal's specific antibody response was evaluated by indirect ELISA using serum taken prior to the infective challenge (Loukas et al, 2004). Recombinant Ac-ASP-2 was coated onto microtiter plates at a concentration of 5 g.ml^−1. Dog sera were titrated between 1:100 and 1:2×10^6 to determine endpoint titers. Anti-canine IgG1, IgG2 and IgE antibodies conjugated to horse-radish peroxidase (Bethyl Laboratories) were used at a dilution of 1:1,000.

[3] = system: A. caninum; experiment: Canine vaccine trial with Ac-ASP-2, Ac-API, Ac-MEP-1, Ac-APR-1 in AS03, footpad challenge with 500 A. caninum L3
Description: as §1, with “The ten purpose bred beagles were randomized into five arms: immunized with the adjuvant-formulated recombinant proteins or adjuvant only (control).” left out
A. caninum larvae were cultured from eggs collected in the feces of infected dogs. All hookworms in the infective challenge were approximately equal age (17±7 days post hatching). The species identity of the infective larvae were validated using PCR. All dogs were infected by the footpad method with the same dose of 500 L3 of A. caninum (Zhan et al, 2001). Larval challenge occurred on one of three consecutive days (at age 120+/−9 days). Fourteen-sixteen days after the final immunization, dogs were anesthetized using a combination of ketamine and xylazine (20 mg.kg^−1 and 10 mg.kg^−1 respectively), and 500 A. caninum L3 in a final volume of […] were applied to the footpad.

[4] = system: antigen-specific IgG1 and IgG2; experiment: Antibody titers in HV-12 (Ac-CYS, Ac-MTP-2, Ac-GST in AS03, irradiated L3)
Description: (§2) Brief Outline of Study Sections: Purpose bred beagles were randomized into five groups. […] groups were given one of three candidate vaccines: Ac-Cystatin, Ac-MTP-2 and Ac-GST in combination with the adjuvant ASO3. One group will serve as the negative control receiving the adjuvant only. Another group will be a positive control immunized with irradiated infective larvae. Each animal's specific antibody response was evaluated by direct ELISA using serum taken prior to the infective challenge. Cellular immune responses were assessed by peripheral (blood cells) lymphoproliferative responses to specific recombinant antigens and/or crude extract of infective larvae (L3) or adult worms. Local cellular immune responses were performed post mortem with lymphocytes extracted from mesenteric lymph nodes and, if considered, spleen. After immunization, animals were challenged with a known number dose of infective third stage larvae of A. caninum. Quantitative ova counts, used to evaluate worm burden, were determined from fecal samples collected three times per week. […] Tissues from different organs were examined macro and microscopically to assess any consequence of the vaccine, parasite or immune related lesions.
(§3) Administration of Test and Control Articles: The vaccines and adjuvant were administered intramuscularly (IM) […] beginning when the dogs are 62+/−4 days old. The vaccines are boosted at 21+/−3-day intervals. Four doses of the vaccines were given 21 days apart (days 0, 21, 42, and […]). The dogs were challenged percutaneously with 500 A. caninum L3, 14 days after the final vaccination.
Serum Samples for Quantitative ELISA Antibody Titers: Animals treated with vaccines containing foreign proteins develop an immune response resulting in an increased level of high affinity serum antibodies that are directed against the antigen. […] White blood cells were collected for immunological measurements nine (9) days after the last boost and at the time of euthanasia to address the cellular immune response status and cytokine production upon in vitro restimulation of lymphocytes.

[5] = system: A. caninum; experiment: Canine vaccine trial HV-12, percutaneous challenge with 500 A. caninum L3
Description: as §2, §3
Challenge Infection: Ancylostoma caninum larvae were cultured from the eggs collected in the feces of infected dogs. All hookworms in the infective challenge were approximately equal age (17±7 days). The species identity of the infective larva dose were validated using PCR DNA amplification and specific oligonucleotide primers. Overnight-collected feces of A. caninum-infected dogs were cultured, extracted and counted. All dogs were infected by the footpad method with the same dose (500+/−5%, of 3rd stage larvae of A. caninum. Larval challenge occurs on one of three consecutive days (at age 120+/−9 days) in 5 series. To minimize the difference in the infective L3 doses, each series included one dog from each (A-E group). […]
Adult Worm Count. Adult worms retained in the small and large intestines were collected. The small and large bowel will be collected and the small intestine will be suspended (the large bowel will not be suspended) in a container and incubated for at least two hours at 35° C. saline to collect the adult parasites. The adult worms were separated from the intestinal contents, counted, and preserved in formalin for subsequent count and analysis of sex, length and weight. Results and Analysis

Ac-APR-1: A. caninum aspartic protease (cathepsin), SEQ ID NO: 50; baculovirus expressed
% Decrease of adult hookworms in the small intestines relative to alum-injected dogs ([1]; group): 18% | % Increase of adult hookworms in the colons relative to alum-injected dogs ([1]; group): 300% | adult A. caninum hookworms in the colons, Median ([1]; group median, alum control 4): 27 | adult hookworms in the small intestines, Median ([1]; group median, alum control 180): 138 | ratio of adult hookworms in the small intestine relative to the colon ([1]; vaccinated group, alum-injected dogs 43.9): 7.3 | antibody response, in words ([2]; AS03): only a single dog developed a substantial antibody titer | Pre-challenge antibody titer, IgG1, GEOMEAN ([2]; geometric mean of group): 100 | Pre-challenge antibody titer, IgG2, GEOMEAN ([2]; geometric mean of group): 562 | Pre-challenge antibody titer, IgG1 ([2]; individual dogs): 100 | Pre-challenge antibody titer, IgG2 ([2]; individual dogs): 500 (3×) and 4,500 and 100 | worm burdens, Maximum ([3]; 5 dogs): 250.00 | worm burdens, Minimum ([3]; 5 dogs): 119.00 | worm burdens, Mean ([3]; 5 dogs, ASO3 control 203.8000): 177.0000 | worm burdens, Median ([3]; 5 dogs, ASO3 control 215.0000): 168.0000 | worm burden reduction in a single dog ([3]; dog A3 (ASP-2 group), dog D2 (APR-1 group), versus control mean): 42% | worm burden, Colon, Male, Average ([3]; group average, AS03 control 5): 4 | worm burden, Colon, Female, Average ([3]; group average, AS03 control 9): 6 | worm burden, Intestine, Female, Average ([3]; group average, AS03 control 95): 79 | worm burden, Intestine, Male, Average ([3]; group average, AS03 control 96): 83 | worm burden, Total, Average ([3]; group average, AS03 control 204): 177 | worm burden, Colon, Female ([3]; individual dogs): 1 and 18 and 3 and 8 and 0 | worm burden, Colon, Male ([3]; individual dogs): 0 (2×) and 11 and 3 and 5 | worm burden, Intestine, Female ([3]; individual dogs): 76 and 41 and 69 and 87 and 122 | worm burden, Intestine, Male ([3]; individual dogs): 65 and 47 and 131 and 124 and 49 | worm burden, Total ([3]; individual dogs): 168 and 119 and 146 and 202 and 250 | fecal eggs (fecundity), in words ([3]; relative to the control group): significant reduction in fecal eggs

B1: Ac-GST: A. caninum glutathione S transferase, SEQ ID NO: 77; Pichia pastoris expressed (protein, listed as Ancylostoma caninum)
chain: MVHYKLTYFNGRGLGECARQLFALADQQYEDIRVTHEDFPEIKPNLPFGQLPLLNEDGKELAQSNAINRYLARKFGFAGKTPFEEALVDSLADQMTDYRVEIKPFVYTAYGHQKFGDLETLKKDVMLPARDKFLGFITKFLKNNPSGFLVGDSVTWIDLLLAEHASDIQSKVPEYLEGFPEVKAHMEKVRSIPKLKKWIETRPETHF
Antibody titers, IgG1, GEOMEAN ([4]; geometric mean of group): 13,500 | Antibody titers, IgG2, GEOMEAN ([4]; geometric mean of group): 50,452 | Antibody titers, IgG1 ([4]; individual dogs, after four immunizations, L3 Extract = group E dogs vaccinated with irradiated L3): 13,500 | Antibody titers, IgG2 ([4]; individual dogs, after four immunizations, L3 Extract = group E dogs vaccinated with irradiated L3, listed as GST): 40,500 (4×) and 121,500 | worm burden reduction relative to AS03 controls ([5]; dog, in vivo, listed as GST): 40% and 41% | Adult Hookworm Worm Counts, Intestine, Male, Average ([5]; group average, AS03 control 64): 34 | Adult Hookworm Worm Counts, Intestine, Female, Average ([5]; group average, AS03 control 71): 44 | Adult Hookworm Worm Counts, Total, Average ([5]; group average, AS03 control 137): 83 | Adult Hookworm Worm Counts, Colon, Female ([5]; individual dogs, listed as GST): 0 (2×) and 3 and 4 and 5 | Adult Hookworm Worm Counts, Colon, Male ([5]; individual dogs, listed as GST): 0 (2×) and 4 and 7 and 2 | Adult Hookworm Worm Counts, Intestine, Female ([5]; individual dogs, listed as GST): 81 and 26 and 36 (2×) and 41 | Adult Hookworm Worm Counts, Intestine, Male ([5]; individual dogs, listed as GST): 50 and 34 and 19 and 33 (2×) | Adult Hookworm Worm Counts, Total ([5]; individual dogs, listed as GST): 131 and 67 and 55 and 80 and 81
